Test results reported in US20020137929A1, “1 - (3-heterocyclylphenyl) isothiourea, -isourea, -guanidine and -amidine herbicidal agents” (Intellectual Property Department, BASF Aktiengesellschaft, priority 1998, published 2002).

Experiments:
SETVI (Foxtail, Green) [1] = assay: Postemergence herbicidal evaluation; format: in vivo, Setaria viridis; conditions: postemergence
Outline: (§1)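 Visual 0–9 rating versus control (stand, vigor, malformation, size, chlorosis, overall appearance), taken four to five weeks post-spray. Two-week-old seedlings received roughly 0.0156–0.500 kg/ha active in acetone/water (50/50) with 0.5% TWEEN 20 via nozzle at 40 psi.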

ORYSAT (Rice, Tebonnet) = assay: Postemergence herbicidal evaluation; format: in vivo, Oryza sativa, (L.) Tebonnet; conditions: postemergence
Outline: as §1

ZEAMX (Corn, Field) [2] = assay: Postemergence herbicidal evaluation; format: in vivo, Zea mays; conditions: postemergence
Outline: as §1

ECHCG (Barnyardgrass) = assay: Preemergence herbicidal evaluation; format: in vivo, Echinochloa crus-galli; conditions: preemergence, rated 4-5 weeks after treatment, 0-9 scale
Outline: (§2)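 Each species is sown separately in potting soil over roughly an inch of soil before any emergence. The soil surface then receives an aqueous acetone spray delivering about 0.0156 to 0.500 kg/ha of compound. After four to five weeks, injury is scored from 0 to 9 relative to a control.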

SETVI (Foxtail, Green) [3] = assay: Preemergence herbicidal evaluation; format: in vivo, Setaria viridis; conditions: preemergence, rated 4-5 weeks after treatment, 0-9 scale
Outline: as §2

[4] = system: TRZAWR (Wheat, Winter, cv Riband); assay: Preemergence herbicidal evaluation; format: in vivo, Triticum aestivum; conditions: preemergence, rated 4-5 weeks after treatment, 0-9 scale
Outline: as §2

ZEAMX (Corn, Field) [5] = assay: Preemergence herbicidal evaluation; format: in vivo, Zea mays; conditions: preemergence, rated 4-5 weeks after treatment, 0-9 scale
Outline: as §2

[6] = system: ECHORC (Watergrass (Calif.)); assay: Preemergence weed control under flooded paddy conditions; format: in vivo, Echinochloa oryzoides; conditions: rated 3-4 weeks after treatment
Outline: (§3)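 Ratings on a 0-9 visual scale cover stand, vigor, malformation, size, chlorosis and overall appearance relative to a control, taken three to four weeks post-treatment. Application was into flood water over freshly sown silt loam at roughly 0.0313 to 0.500 kg/ha.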

CYPIR (Rice Flatsedge) [7] = assay: as above; format: in vivo, Cyperus iria; conditions: rated 3-4 weeks after treatment
Outline: as §3

CYPSE (Flatsedge) [8] = assay: as above; format: in vivo, Cyperus serotinus; conditions: rated 3-4 weeks after treatment
Outline: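 Values are visual 0-9 scores against a control for a preemergence application into paddy flood water at about 0.0313 to 0.500 kg/ha. Greenhouse duration was three to four weeks.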

[9] = system: ECHORC (Watergrass (Calif.)); assay: Postemergence weed control under flooded paddy conditions; format: in vivo, Echinochloa oryzoides; conditions: postemergence weeds, rated 3 to 4 weeks after treatment
Outline: (§4)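 Flood-water application, about 0.0313–0.500 kg/ha a.i. in aqueous/acetone 50/50 v/v; water depth 1.5–3 cm throughout. Weeds 3–5 cm, rice 1.5–2.5 leaf. Greenhouse; 0–9 visual rating vs control at 3–4 wk.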

CYPIR (Rice Flatsedge) [10] = assay: as above; format: in vivo, Cyperus iria; conditions: postemergence weeds, rated 3 to 4 weeks after treatment
Outline: as §4

CYPSE (Flatsedge) [11] = assay: as above; format: in vivo, Cyperus serotinus; conditions: postemergence weeds, rated 3 to 4 weeks after treatment
Outline: as §4

CN1C(=O)C(CC(=O)NS(C)(=O)=O)SC1=Nc1cc(-n2c(=O)cc(C(F)(F)F)n(C)c2=O)c(F)cc1Cl (stereo not drawn) [Compound 97, 2-{{2-Chloro-5-[3,6-dihydro-3-methyl-2,6-dioxo-4-(trifluoromethyl)-1(2H)-pyrimidinyl]-4-fluorophenyl}imino}-3-methyl-N-(methylsulfonyl)-4-oxo-5-thiazolidineacetamide]
SETVI herbicidal rating (SETVI (Foxtail, Green) [1]; rate 0.0156 kg/ha): 1.0 | SETVI herbicidal rating (SETVI (Foxtail, Green) [1]; rate 0.0313 kg/ha): 6.0 | SETVI herbicidal rating (SETVI (Foxtail, Green) [1]; rate 0.0625 kg/ha): 9.0 | SETVI herbicidal rating (SETVI (Foxtail, Green) [1]; rate 0.1250 kg/ha): 9.0 | ORYSAT herbicidal rating (ORYSAT (Rice, Tebonnet); rate 0.0156 kg/ha): 0.5 | ORYSAT herbicidal rating (ORYSAT (Rice, Tebonnet); rate 0.0313 kg/ha): 0.5 | ORYSAT herbicidal rating (ORYSAT (Rice, Tebonnet); rate 0.0625 kg/ha): 2.5 | ORYSAT herbicidal rating (ORYSAT (Rice, Tebonnet); rate 0.1250 kg/ha): 3.0 | ZEAMX herbicidal rating (ZEAMX (Corn, Field) [2]; rate 0.0156 kg/ha): 3.5 | ZEAMX herbicidal rating (ZEAMX (Corn, Field) [2]; rate 0.0313 kg/ha): 4.0 | ZEAMX herbicidal rating (ZEAMX (Corn, Field) [2]; rate 0.0625 kg/ha): 4.0 | ZEAMX herbicidal rating (ZEAMX (Corn, Field) [2]; rate 0.1250 kg/ha): 5.0 | ECHCG rating (ECHCG (Barnyardgrass); 0.1250 kg/ha): 0.0 | ECHCG rating (ECHCG (Barnyardgrass); 0.2500 kg/ha): 0.0 | ECHCG rating (ECHCG (Barnyardgrass); 0.5000 kg/ha): 0.0 | SETVI rating (SETVI (Foxtail, Green) [3]; 0.1250 kg/ha): 0.0 | SETVI rating (SETVI (Foxtail, Green) [3]; 0.2500 kg/ha): 1.0 | SETVI rating (SETVI (Foxtail, Green) [3]; 0.5000 kg/ha): 7.0 | TRZAWR rating ([4]; 0.1250 kg/ha): 0.0 | TRZAWR rating ([4]; 0.2500 kg/ha): 1.0 | TRZAWR rating ([4]; 0.5000 kg/ha): 2.0 | ZEAMX rating (ZEAMX (Corn, Field) [5]; 0.1250 kg/ha): 0.0 | ZEAMX rating (ZEAMX (Corn, Field) [5]; 0.2500 kg/ha): 0.0 | ZEAMX rating (ZEAMX (Corn, Field) [5]; 0.5000 kg/ha): 4.0 | ECHORC herbicidal effect rating ([6]; 0.0313 kg/ha): 0.0 | ECHORC herbicidal effect rating ([6]; 0.0625 kg/ha): 0.0 | ECHORC herbicidal effect rating ([6]; 0.1250 kg/ha): 2.0 | ECHORC herbicidal effect rating ([6]; 0.2500 kg/ha): 3.0 | CYPIR herbicidal effect rating (CYPIR (Rice Flatsedge) [7]; 0.0313 kg/ha): 0.0 | CYPIR herbicidal effect rating (CYPIR (Rice Flatsedge) [7]; 0.0625 kg/ha): 0.0 | CYPIR herbicidal effect rating (CYPIR (Rice Flatsedge) [7]; 0.1250 kg/ha): 3.0 | CYPIR herbicidal effect rating (CYPIR (Rice Flatsedge) [7]; 0.2500 kg/ha): 4.0 | CYPSE herbicidal effect rating (CYPSE (Flatsedge) [8]; 0.0313 kg/ha): 0.0 | CYPSE herbicidal effect rating (CYPSE (Flatsedge) [8]; 0.0625 kg/ha): 0.0 | CYPSE herbicidal effect rating (CYPSE (Flatsedge) [8]; 0.1250 kg/ha): 0.0 | CYPSE herbicidal effect rating (CYPSE (Flatsedge) [8]; 0.2500 kg/ha): 3.0 | Herbicidal rating ECHORC ([9]; Rate 0.0313 kg/ha): 0.0 | Herbicidal rating ECHORC ([9]; Rate 0.0625 kg/ha): 0.0 | Herbicidal rating ECHORC ([9]; Rate 0.1250 kg/ha): 2.0 | Herbicidal rating ECHORC ([9]; Rate 0.2500 kg/ha): 3.0 | Herbicidal rating CYPIR (CYPIR (Rice Flatsedge) [10]; Rate 0.0313 kg/ha): 0.0 | Herbicidal rating CYPIR (CYPIR (Rice Flatsedge) [10]; Rate 0.0625 kg/ha): 0.0 | Herbicidal rating CYPIR (CYPIR (Rice Flatsedge) [10]; Rate 0.1250 kg/ha): 3.0 | Herbicidal rating CYPIR (CYPIR (Rice Flatsedge) [10]; Rate 0.2500 kg/ha): 4.0 | Herbicidal rating CYPSE (CYPSE (Flatsedge) [11]; Rate 0.0313 kg/ha): 0.0 | Herbicidal rating CYPSE (CYPSE (Flatsedge) [11]; Rate 0.0625 kg/ha): 0.0 | Herbicidal rating CYPSE (CYPSE (Flatsedge) [11]; Rate 0.1250 kg/ha): 0.0 | Herbicidal rating CYPSE (CYPSE (Flatsedge) [11]; Rate 0.2500 kg/ha): 3.0
